Columns and labels:
Assay in all cases: relative viability (nuclei count vs DMSO), 5 days (fraction); higher = more cells survive
[1] = compound: Cn1cnc2c(F)c(Nc3ccc(Br)cc3Cl)c(C(=O)NOCCO)cc21 [Selumetinib] + CC(=O)c1c(C)c2cnc(Nc3ccc(N4CCNCC4)cn3)nc2n(C2CCCC2)c1=O [Palbociclib] (partner 0.5 µM)
Outline: (§1)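 Lung cancer cell lines, seeded in 1536-well plates, were treated the following day by pin tool with a single drug or with five library-drug doses (not always all listed) in √10 steps on top of a fixed anchor-drug dose. Cells were fixed and nuclei stained in one step after 5 days, and nuclei were counted. Relative viability is the nuclei count for treated wells divided by that for vehicle wells, reported as medians of duplicate plates.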

Selumetinib + Luminespib = compound: Cn1cnc2c(F)c(Nc3ccc(Br)cc3Cl)c(C(=O)NOCCO)cc21 [Selumetinib] + CCNC(=O)c1noc(-c2cc(C(C)C)c(O)cc2O)c1-c1ccc(CN2CCOCC2)cc1 [Luminespib] (partner 0.01 µM)
Outline: as §1

Selumetinib + Phenformin = compound: Cn1cnc2c(F)c(Nc3ccc(Br)cc3Cl)c(C(=O)NOCCO)cc21 [Selumetinib] + N=C(N)NC(=N)NCCc1ccccc1 [Phenformin] (partner 250 µM)
Outline: as §1

Venetoclax + Lapatinib = compound: CC1(C)CCC(CN2CCN(c3ccc(C(=O)NS(=O)(=O)c4ccc(NCC5CCOCC5)c([N+](=O)[O-])c4)c(Oc4cnc5[nH]ccc5c4)c3)CC2)=C(c2ccc(Cl)cc2)C1 [Venetoclax] + CS(=O)(=O)CCNCc1ccc(-c2ccc3ncnc(Nc4ccc(OCc5cccc(F)c5)c(Cl)c4)c3c2)o1 [Lapatinib] (partner 2 µM)
Outline: as §1

Cell Line | relative viability ([1]; first compound 0.02 µM) | relative viability ([1]; first compound 0.06325 µM) | relative viability ([1]; first compound 0.2 µM) | relative viability ([1]; first compound 0.6325 µM) | relative viability (Selumetinib + Luminespib; first compound 0.02 µM) | relative viability (Selumetinib + Luminespib; first compound 0.06325 µM) | relative viability (Selumetinib + Luminespib; first compound 0.2 µM) | relative viability (Selumetinib + Luminespib; first compound 0.6325 µM) | relative viability (Selumetinib + Phenformin; first compound 0.02 µM) | relative viability (Selumetinib + Phenformin; first compound 0.06325 µM) | relative viability (Selumetinib + Phenformin; first compound 0.2 µM) | relative viability (Selumetinib + Phenformin; first compound 0.6325 µM) | relative viability (Venetoclax + Lapatinib; first compound 0.01 µM) | relative viability (Venetoclax + Lapatinib; first compound 0.03162 µM) | relative viability (Venetoclax + Lapatinib; first compound 0.1 µM) | relative viability (Venetoclax + Lapatinib; first compound 0.3162 µM) | relative viability (Venetoclax + Lapatinib; first compound 1 µM)
NCI-H2342 | 0.476 | 0.53 | 0.498 | 0.482 | 0.655 | 0.64 | 0.677 | 0.69 | 0.623 | 0.618 | 0.564 | 0.722 | – | – | – | – | –
SK-MES-1 | 0.304 | 0.322 | 0.315 | 0.264 | 0.74 | 0.559 | 0.344 | 0.375 | 0.667 | 0.599 | 0.637 | 0.462 | 0.462 | 0.53 | 0.461 | 0.425 | 0.463
LCLC-97TM1 | 0.188 | 0.213 | 0.163 | 0.19 | 0.79 | 0.622 | 0.415 | 0.411 | 0.44 | 0.43 | 0.387 | 0.399 | – | 1 | 0.579 | 0.868 | 0.814
HCC-44 | 1 | 0.971 | 1.01 | 1.09 | 1.33 | 1.03 | 0.909 | 0.519 | 0.179 | 0.187 | 0.209 | 0.184 | 0.981 | 0.979 | 0.997 | 1.08 | 0.973
201T | 0.357 | 0.352 | 0.314 | 0.329 | 1.08 | 1.03 | 0.962 | 0.906 | 0.507 | 0.406 | 0.455 | 0.421 | 1.07 | 0.943 | 0.959 | 1.02 | 1.08
HOP-62 | 0.469 | 0.489 | 0.458 | 0.37 | 0.862 | 0.754 | 0.656 | 0.384 | 0.753 | 0.657 | 0.624 | 0.465 | 1.29 | 1.12 | 1.02 | 1.01 | 0.896
NCI-H661 | 0.415 | 0.384 | 0.418 | 0.382 | 0.977 | 0.929 | 0.942 | 0.864 | 0.261 | 0.291 | 0.272 | 0.246 | 0.519 | 0.615 | 0.491 | 0.5 | 0.487
NCI-H2087 | 0.197 | 0.168 | 0.144 | 0.0937 | 0.167 | 0.193 | 0.148 | 0.147 | 0.367 | 0.279 | 0.294 | 0.214 | 0.958 | 1.16 | 1.07 | 1.09 | 1.05
NCI-H647 | 0.339 | 0.353 | 0.354 | 0.364 | 0.195 | 0.141 | 0.125 | 0.136 | 0.592 | 0.488 | 0.512 | 0.414 | 1.14 | 1.15 | – | 1.21 | 0.978
SW 1573 | 0.337 | 0.294 | 0.365 | 0.312 | 0.207 | 0.168 | 0.214 | 0.228 | 0.291 | 0.275 | 0.276 | 0.212 | 1.15 | 0.979 | 0.935 | 1.08 | 0.966
A-427 | 0.503 | 0.496 | 0.51 | 0.538 | 0.901 | 0.986 | 0.953 | 0.874 | 0.264 | 0.271 | 0.266 | 0.23 | 0.911 | 1.02 | 1.05 | 1.1 | 1.13
NCI-H520 | 0.211 | 0.236 | 0.237 | 0.258 | 0.226 | 0.215 | 0.213 | 0.238 | 0.616 | 0.659 | 0.671 | 0.784 | 0.86 | 0.979 | 0.76 | 0.903 | 0.732
NCI-H1755 | 0.41 | 0.437 | 0.444 | 0.422 | 0.715 | 0.531 | 0.495 | 0.368 | 0.628 | 0.594 | 0.584 | 0.53 | 1.05 | 1.08 | 0.796 | 1.04 | 0.961
NCI-H1975 | 0.517 | 0.509 | 0.467 | 0.388 | 0.143 | 0.209 | 0.175 | 0.183 | 0.426 | 0.378 | 0.379 | 0.34 | 1.02 | 0.875 | 0.903 | 0.948 | 0.863
Calu-6 | – | – | – | – | – | – | – | – | – | – | – | – | 1.08 | 1.13 | 0.94 | 1 | 0.97
SK-LU-1 | 0.381 | 0.353 | 0.362 | 0.263 | 0.183 | 0.17 | 0.178 | 0.181 | 0.536 | 0.484 | 0.505 | 0.239 | 0.907 | 1.1 | 0.859 | 0.955 | 0.893
